Measured values reported in article PMC7486443, “Generation of Phenothiazine with Potent Anti-TLK1 Activity for Prostate Cancer Therapy” (iScience, 2020).

What was measured:
Assay in all cases: biochemical
Design in all cases: DiscoverX KINOMEscan scanMAX competition binding panel, single concentration, percent of control; remaining binding: dose or concentration left out as unconfirmed
Details in all cases: KINOMEscan binding, percent of control; read-out: Table S4_SCANMAX REPORT - related to Fig. 1 / Percent Control
HIPK1 = HIPK1 (Homo sapiens, UniProt Q86Z02)
PIK3CA = PIK3CA (Homo sapiens, UniProt P42336)
PIK3CA(M1043I) = PIK3CA(M1043I) (Homo sapiens, UniProt P42336, M1043I)
RIOK2 = RIOK2 (Homo sapiens, UniProt Q9BVS4)
MST1R = MST1R (Homo sapiens, UniProt Q04912)
AKT3 = AKT3 (Homo sapiens, UniProt Q9Y243)
STK35 = STK35 (Homo sapiens, UniProt Q8TDR2)
AKT2 = AKT2 (Homo sapiens, UniProt P31751)
[1] = biological target: T1, TYK2(JH1domain-catalytic) (Homo sapiens, UniProt P29597)
T1 construct: JH1domain-catalytic

ERBB3 = ERBB3 (Homo sapiens, UniProt P21860)
ERBB3, sequence (P21860 whole entry): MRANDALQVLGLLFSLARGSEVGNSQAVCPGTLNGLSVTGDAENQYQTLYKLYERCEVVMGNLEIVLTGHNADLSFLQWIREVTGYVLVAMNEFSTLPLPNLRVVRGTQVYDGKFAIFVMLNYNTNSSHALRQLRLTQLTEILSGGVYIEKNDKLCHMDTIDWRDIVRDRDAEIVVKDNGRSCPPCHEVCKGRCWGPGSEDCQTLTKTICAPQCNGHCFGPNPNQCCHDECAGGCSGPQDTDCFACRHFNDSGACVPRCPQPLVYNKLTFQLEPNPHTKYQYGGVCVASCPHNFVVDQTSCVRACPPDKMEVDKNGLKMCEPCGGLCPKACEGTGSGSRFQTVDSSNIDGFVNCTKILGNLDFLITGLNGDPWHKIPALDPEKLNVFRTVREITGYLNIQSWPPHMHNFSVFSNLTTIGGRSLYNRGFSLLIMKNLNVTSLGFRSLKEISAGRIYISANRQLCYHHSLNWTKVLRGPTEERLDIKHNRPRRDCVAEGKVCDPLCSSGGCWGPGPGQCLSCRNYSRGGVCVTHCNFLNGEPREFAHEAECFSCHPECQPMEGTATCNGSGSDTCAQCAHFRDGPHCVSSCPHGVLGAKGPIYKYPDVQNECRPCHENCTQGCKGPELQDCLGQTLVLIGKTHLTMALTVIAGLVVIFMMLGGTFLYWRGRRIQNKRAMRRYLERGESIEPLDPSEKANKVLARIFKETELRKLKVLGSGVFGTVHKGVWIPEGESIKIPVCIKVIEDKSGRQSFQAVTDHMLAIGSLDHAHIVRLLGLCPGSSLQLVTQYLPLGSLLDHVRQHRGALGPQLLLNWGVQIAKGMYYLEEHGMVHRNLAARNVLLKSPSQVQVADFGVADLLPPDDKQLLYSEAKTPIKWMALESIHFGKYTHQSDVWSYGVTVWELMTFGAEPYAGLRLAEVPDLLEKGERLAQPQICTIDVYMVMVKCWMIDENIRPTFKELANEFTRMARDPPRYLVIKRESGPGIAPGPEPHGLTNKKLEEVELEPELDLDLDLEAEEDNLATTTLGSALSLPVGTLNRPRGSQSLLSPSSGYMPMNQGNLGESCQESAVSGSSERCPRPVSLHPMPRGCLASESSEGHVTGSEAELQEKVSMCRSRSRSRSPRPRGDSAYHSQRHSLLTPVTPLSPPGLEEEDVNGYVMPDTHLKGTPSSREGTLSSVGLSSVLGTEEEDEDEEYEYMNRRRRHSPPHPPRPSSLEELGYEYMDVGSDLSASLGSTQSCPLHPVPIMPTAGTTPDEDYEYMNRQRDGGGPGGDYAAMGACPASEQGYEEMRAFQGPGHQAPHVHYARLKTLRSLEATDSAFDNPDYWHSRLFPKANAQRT

EPHA3 = EPHA3 (Homo sapiens, UniProt P29320)
ADCK3 = biological target: T2, ADCK3 (Homo sapiens, UniProt Q8NI60)
T2 construct: gene COQ8A

MARK4 = MARK4 (Homo sapiens, UniProt Q96L34)
BMPR2 = BMPR2 (Homo sapiens, UniProt Q13873)
BMPR2, sequence (Q13873 whole entry): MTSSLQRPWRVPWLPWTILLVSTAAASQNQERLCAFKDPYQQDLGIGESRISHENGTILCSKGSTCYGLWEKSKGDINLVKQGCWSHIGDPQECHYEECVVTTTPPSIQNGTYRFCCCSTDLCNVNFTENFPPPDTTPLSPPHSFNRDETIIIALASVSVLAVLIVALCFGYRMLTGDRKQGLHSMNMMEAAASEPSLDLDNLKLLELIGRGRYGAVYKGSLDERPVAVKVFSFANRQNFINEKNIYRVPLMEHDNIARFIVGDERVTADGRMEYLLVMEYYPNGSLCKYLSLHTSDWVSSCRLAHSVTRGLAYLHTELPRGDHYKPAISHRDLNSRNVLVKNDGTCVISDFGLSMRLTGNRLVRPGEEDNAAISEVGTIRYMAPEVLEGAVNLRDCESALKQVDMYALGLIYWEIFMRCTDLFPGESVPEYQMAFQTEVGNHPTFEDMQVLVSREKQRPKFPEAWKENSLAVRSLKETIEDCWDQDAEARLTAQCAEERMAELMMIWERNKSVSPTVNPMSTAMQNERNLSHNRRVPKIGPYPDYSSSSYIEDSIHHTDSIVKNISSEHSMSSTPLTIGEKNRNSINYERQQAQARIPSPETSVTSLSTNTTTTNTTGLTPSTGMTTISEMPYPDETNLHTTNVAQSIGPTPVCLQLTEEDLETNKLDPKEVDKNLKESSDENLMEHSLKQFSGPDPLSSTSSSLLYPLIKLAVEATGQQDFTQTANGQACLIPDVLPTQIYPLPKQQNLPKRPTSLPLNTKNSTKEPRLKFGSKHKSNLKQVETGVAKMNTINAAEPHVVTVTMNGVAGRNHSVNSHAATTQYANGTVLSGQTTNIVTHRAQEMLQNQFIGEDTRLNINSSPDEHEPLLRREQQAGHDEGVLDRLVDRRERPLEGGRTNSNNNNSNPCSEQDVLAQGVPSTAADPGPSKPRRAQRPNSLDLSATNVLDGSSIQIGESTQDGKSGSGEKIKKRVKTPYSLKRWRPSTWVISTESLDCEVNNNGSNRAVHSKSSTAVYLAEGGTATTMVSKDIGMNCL

TSSK1B = TSSK1B (Homo sapiens, UniProt Q9BXA7)
KIT(D816H) = KIT(D816H) (Homo sapiens, UniProt P10721, D816H)
KIT(D816H), sequence (P10721 whole entry D816H): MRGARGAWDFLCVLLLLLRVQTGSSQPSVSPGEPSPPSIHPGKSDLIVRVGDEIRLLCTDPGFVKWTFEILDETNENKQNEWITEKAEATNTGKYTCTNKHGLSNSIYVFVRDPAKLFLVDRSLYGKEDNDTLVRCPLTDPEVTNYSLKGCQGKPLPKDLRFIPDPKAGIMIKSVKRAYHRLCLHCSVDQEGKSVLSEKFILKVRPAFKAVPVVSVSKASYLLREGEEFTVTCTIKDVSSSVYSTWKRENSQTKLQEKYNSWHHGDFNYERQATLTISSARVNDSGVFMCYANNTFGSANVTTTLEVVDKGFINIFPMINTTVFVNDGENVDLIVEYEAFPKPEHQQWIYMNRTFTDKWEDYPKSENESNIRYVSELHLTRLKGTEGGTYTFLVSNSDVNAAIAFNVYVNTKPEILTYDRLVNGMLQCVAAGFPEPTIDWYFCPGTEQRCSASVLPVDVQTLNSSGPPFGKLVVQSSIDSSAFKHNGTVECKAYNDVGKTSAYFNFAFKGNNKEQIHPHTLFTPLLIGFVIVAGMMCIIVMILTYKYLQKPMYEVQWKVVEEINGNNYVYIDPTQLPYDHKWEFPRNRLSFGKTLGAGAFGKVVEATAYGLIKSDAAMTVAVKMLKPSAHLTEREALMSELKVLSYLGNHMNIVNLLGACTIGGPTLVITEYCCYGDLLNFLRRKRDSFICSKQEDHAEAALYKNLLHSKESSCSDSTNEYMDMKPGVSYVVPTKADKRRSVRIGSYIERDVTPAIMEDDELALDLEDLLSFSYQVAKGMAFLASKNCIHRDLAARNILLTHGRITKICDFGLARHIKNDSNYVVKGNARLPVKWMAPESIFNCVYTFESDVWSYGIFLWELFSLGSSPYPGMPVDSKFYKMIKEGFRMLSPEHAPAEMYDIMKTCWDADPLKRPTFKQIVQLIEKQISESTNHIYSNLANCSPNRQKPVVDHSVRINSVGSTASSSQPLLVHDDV

INSRR = INSRR (Homo sapiens, UniProt P14616)
INSRR, sequence (P14616 whole entry): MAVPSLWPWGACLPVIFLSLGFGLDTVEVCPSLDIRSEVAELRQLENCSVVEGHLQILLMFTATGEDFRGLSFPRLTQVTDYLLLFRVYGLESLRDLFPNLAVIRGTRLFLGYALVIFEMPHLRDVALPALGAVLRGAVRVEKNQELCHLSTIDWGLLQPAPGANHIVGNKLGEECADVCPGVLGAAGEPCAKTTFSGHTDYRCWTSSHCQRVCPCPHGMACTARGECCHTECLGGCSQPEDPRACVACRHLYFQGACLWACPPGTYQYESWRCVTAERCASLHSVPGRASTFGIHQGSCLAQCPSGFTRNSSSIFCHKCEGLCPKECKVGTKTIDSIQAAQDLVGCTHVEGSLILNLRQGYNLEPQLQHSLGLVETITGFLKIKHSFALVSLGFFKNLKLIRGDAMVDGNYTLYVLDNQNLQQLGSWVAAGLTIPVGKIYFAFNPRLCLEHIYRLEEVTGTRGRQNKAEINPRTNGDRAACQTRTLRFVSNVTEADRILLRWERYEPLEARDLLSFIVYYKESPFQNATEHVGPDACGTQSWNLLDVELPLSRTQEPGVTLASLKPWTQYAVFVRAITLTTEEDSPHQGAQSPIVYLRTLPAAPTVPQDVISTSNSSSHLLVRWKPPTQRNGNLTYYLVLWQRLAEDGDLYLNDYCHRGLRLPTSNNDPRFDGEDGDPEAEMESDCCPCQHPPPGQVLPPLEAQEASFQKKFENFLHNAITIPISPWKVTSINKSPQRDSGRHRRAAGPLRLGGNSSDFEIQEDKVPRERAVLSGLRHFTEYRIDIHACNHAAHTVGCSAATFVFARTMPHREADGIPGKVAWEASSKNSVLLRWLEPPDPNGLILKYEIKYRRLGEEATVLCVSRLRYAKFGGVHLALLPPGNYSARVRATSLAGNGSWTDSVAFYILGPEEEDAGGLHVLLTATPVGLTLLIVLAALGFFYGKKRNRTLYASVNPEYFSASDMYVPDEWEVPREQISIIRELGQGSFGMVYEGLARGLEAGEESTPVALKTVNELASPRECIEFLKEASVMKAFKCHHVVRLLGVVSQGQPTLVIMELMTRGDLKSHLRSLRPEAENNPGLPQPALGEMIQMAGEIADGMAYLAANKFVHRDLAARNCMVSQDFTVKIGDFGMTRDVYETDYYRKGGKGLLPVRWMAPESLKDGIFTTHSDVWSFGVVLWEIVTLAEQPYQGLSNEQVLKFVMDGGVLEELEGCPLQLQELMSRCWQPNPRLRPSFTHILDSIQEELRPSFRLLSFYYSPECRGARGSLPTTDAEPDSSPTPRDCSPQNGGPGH

MEK2 = biological target: T3, MEK2 (Homo sapiens, UniProt P36507)
T3 construct: gene MAP2K2
T3 sequence (P36507 whole entry): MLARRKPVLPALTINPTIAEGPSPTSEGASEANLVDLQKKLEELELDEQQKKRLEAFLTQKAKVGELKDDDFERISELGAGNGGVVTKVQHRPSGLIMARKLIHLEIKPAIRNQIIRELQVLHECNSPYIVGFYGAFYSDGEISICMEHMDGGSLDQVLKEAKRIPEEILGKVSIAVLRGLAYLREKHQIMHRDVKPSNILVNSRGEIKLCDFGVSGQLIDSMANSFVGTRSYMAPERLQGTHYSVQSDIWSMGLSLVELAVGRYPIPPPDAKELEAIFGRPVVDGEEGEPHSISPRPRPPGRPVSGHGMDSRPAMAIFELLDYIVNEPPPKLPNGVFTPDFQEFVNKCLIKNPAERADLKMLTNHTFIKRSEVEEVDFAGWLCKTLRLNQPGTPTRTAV

LYN = LYN (Homo sapiens, UniProt P07948)

With `c1ccc2c(c1)Sc1ccccc1N2CCN1CCOCC1` [J54] the remaining binding (HIPK1) was 85%, the remaining binding (PIK3CA) was 94% and the remaining binding (PIK3CA(M1043I)) was 98%. For the same compound, the remaining binding (RIOK2) was 100%, the remaining binding (MST1R) was 100% and the remaining binding (AKT3) was 84%. It also gave a remaining binding (STK35) of 82%, a remaining binding (AKT2) of 100% and a remaining binding [1] of 100%. The remaining binding (ERBB3) was 78%, the remaining binding (EPHA3) was 99% and the remaining binding (ADCK3) was 100%. It also gave a remaining binding (MARK4) of 100%, a remaining binding (BMPR2) of 100% and a remaining binding (TSSK1B) of 59%. The remaining binding (KIT(D816H)) was 62%, the remaining binding (INSRR) was 85% and the remaining binding (MEK2) was 100%. The remaining binding (LYN) was 98%.
